The results in this text go back to BindingDB's records for doi:10.1074/jbc.M109.017632 (University of California San Francisco, 2009).

Holding throughout (test): Binding Assay
Assay [1] has as its target T1, Cytochrome P450 130 (Mycobacterium tuberculosis (strain ATCC 25618 / H37Rv), UniProt P9WPN5).
T1 sequence (P9WPN5 whole entry): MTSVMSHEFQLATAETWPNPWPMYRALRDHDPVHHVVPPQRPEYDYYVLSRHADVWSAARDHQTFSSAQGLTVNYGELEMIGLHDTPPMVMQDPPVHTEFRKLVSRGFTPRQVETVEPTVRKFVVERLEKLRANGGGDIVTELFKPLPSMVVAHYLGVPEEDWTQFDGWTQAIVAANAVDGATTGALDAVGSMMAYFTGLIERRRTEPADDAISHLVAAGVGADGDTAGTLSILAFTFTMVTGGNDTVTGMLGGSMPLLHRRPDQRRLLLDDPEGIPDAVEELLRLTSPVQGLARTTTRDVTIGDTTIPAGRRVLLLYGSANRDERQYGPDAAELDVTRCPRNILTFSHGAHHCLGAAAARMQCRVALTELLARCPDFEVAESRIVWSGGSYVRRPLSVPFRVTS
The source says:
(§1) Binding assay using CYP130, CYP130 (G234) or CYP142.

Assay [2] has as its target T2, Cytochrome P450 130 (Mycobacterium tuberculosis (strain CDC 1551 / Oshkosh), UniProt P9WPN4).
T2 sequence (P9WPN4 whole entry): T1 sequence (P9WPN5 whole entry)
Text: as §1

Assay [3] concerns the target T3, Steroid C26-monooxygenase (Mycobacterium tuberculosis (strain CDC 1551 / Oshkosh), UniProt P9WPL4).
T3 sequence (P9WPL4 whole entry): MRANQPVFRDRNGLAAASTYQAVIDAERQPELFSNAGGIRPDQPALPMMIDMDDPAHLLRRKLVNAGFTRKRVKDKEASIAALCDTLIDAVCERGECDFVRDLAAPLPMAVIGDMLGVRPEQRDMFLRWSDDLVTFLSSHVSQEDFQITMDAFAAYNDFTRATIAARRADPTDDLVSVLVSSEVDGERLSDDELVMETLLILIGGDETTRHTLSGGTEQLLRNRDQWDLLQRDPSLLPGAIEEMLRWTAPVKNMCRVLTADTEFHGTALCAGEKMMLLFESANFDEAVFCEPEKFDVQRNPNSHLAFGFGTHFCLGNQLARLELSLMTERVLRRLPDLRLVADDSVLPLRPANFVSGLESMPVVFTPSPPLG
Text: as §1

Molecules are shown by their SMILES.

In general, Kd refers to the equilibrium constant for the complex coming apart. A high value points to weaker binding.

For `Nc1ccc(Sc2ccc(N3C(=O)c4ccc(N)cc4C3=O)cc2)cc1` [Arylamine compound 2], the Kd on Cytochrome P450 130 [1] is 4.9 µM; at Cytochrome P450 130 [2], 1.08 µM; in assay [3], 0.17 µM.

Take `Nc1ccccc1` [Aniline]: the values for the dissociation constant Kd (on Cytochrome P450 130 [1]; on Cytochrome P450 130 [2]; in assay [3]) were 2500 µM, 55.2 µM and 59.2 µM, respectively.

Consider `Clc1ccccc1C(c1ccccc1)(c1ccccc1)n1ccnc1`, for which the Kd on Cytochrome P450 130 [1] stood at 6.1 µM; on Cytochrome P450 130 [2] it was 13.3 µM.

On to `Clc1ccc(COC(Cn2ccnc2)c2ccc(Cl)cc2Cl)cc1` (stereo unspecified) [ECONAZOLE], for which the Kd at Cytochrome P450 130 [1] is 4.5 µM; at Cytochrome P450 130 [2], 1.93 µM; in assay [3] it was 0.33 µM.

With `Cc1cccc(-n2cnc3cc(N)ccc32)c1` [Arylamine compound 4], the dissociation constant Kd at Cytochrome P450 130 [1] worked out at 32.6 µM; on Cytochrome P450 130 [2], 4.8 µM.

In the case of `NCc1ccccc1`, the values for the equilibrium dissociation constant (Kd) (on Cytochrome P450 130 [1]; on Cytochrome P450 130 [2]; in assay [3]) were 10000 µM, 9990 µM and 0.1 µM, respectively.
